Experimental data as given in ChEMBL document CHEMBL1146971, “Discovery of novel heterocyclic factor VIIa inhibitors” (Bioorg Med Chem Lett, 2006).

What was measured:
Coagulation factor VII = molecular target: T1, Coagulation factor VII (Homo sapiens, UniProt P08709); assay: Binding affinity to f7a
T1 sequence (P08709 whole entry): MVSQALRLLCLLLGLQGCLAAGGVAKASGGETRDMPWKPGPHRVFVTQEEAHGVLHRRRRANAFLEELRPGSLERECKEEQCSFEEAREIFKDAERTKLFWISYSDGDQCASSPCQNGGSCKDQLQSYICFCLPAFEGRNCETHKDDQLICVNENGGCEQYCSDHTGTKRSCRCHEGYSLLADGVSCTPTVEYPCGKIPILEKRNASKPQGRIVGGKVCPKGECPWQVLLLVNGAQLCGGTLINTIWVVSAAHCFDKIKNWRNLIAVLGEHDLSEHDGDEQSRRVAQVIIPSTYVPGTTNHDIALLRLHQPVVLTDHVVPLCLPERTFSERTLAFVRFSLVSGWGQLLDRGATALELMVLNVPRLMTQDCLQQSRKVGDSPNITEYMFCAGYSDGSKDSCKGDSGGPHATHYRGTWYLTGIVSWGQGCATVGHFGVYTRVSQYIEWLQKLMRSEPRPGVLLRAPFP

Homo sapiens = species on record: Homo sapiens; assay: Selectivity for f7a over trypsin
Prothrombin = Prothrombin (Homo sapiens, UniProt P00734); assay: Binding affinity to thrombin
Coagulation factor X = Coagulation factor X (Homo sapiens, UniProt P00742); assay: Binding affinity to f10a
Chain of Coagulation factor X (P00742 41-179 limits assumed): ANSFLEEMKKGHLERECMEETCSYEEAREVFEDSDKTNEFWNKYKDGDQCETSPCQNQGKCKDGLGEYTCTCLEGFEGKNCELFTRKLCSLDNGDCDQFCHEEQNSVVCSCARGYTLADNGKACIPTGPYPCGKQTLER
Chain of Coagulation factor X (P00742 235-488 limits assumed): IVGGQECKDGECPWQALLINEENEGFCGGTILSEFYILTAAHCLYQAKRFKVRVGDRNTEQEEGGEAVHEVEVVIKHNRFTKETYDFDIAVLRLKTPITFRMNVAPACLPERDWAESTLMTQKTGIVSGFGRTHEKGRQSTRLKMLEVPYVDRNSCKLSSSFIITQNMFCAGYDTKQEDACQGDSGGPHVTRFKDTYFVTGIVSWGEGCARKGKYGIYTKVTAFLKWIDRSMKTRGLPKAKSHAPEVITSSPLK

Trypsin = Trypsin (Homo sapiens, UniProt P07477+P07478+P35030); assay: Binding affinity to trypsin; assay type: protein assay

Compound | Ki (Coagulation factor VII) | Selectivity ratio (Homo sapiens) | Ki (Prothrombin) | Ki (Coagulation factor X) | Ki (Trypsin)
Nc1ccc2[nH]c(-c3cc(CC(=O)O)cc(-c4ccccc4)c3O)cc2n1 | 2.4 µM | 67 |  |  | 
Nc1ccc2[nH]c(-c3cc(CC(=O)O)cc(-c4cccc([N+](=O)[O-])c4)c3O)nc2n1 | 39 µM |  | > 150 µM | > 150 µM | > 150 µM
O=C(O)Cc1cc(-c2cccc([N+](=O)[O-])c2)c(O)c(-c2nc3ccccc3[nH]2)c1 | 11 µM |  | > 150 µM | > 150 µM | > 150 µM
Nc1ccc2[nH]c(-c3cc(CC(=O)O)cc(-c4cccc(CNC(=O)Nc5ccccc5)c4)c3O)cc2n1 | 0.02 µM | > 7000 |  |  | 
Nc1ccc2[nH]c(-c3cc(CC(=O)O)cc(-c4cccc([N+](=O)[O-])c4)c3O)cc2n1 |  | 400 | 44 µM | 3.5 µM | 120 µM
Nc1ccc2[nH]c(-c3cc(CC(=O)O)cc(-c4cccc(O)c4)c3O)cc2n1 | 2.5 µM | 84 |  |  | 

The remaining lines, values ahead:

Ki (Coagulation factor VII) | Selectivity ratio (Homo sapiens) | Ki (Prothrombin) | Ki (Coagulation factor X) | Ki (Trypsin) | Compound
1.4 µM | > 100 |  |  |  | CN(C)CCNC(=O)NCc1cccc(-c2cc(CC(=O)O)cc(-c3cc4[nH]c(N)ccc-4n3)c2O)c1
12 µM | > 13 |  |  |  | NC(=O)Nc1cccc(-c2cc(CC(=O)O)cc(-c3cc4[nH]c(N)ccc-4n3)c2O)c1
 |  | > 150 µM | 0.32 µM | 11 µM | N=C(N)c1ccc2[nH]c(-c3cc(CC(=O)O)cc(-c4cccc([N+](=O)[O-])c4)c3O)nc2c1
7.4 µM | 16 |  |  |  | CS(=O)(=O)c1cccc(-c2cc(CC(=O)O)cc(-c3cc4[nH]c(N)ccc-4n3)c2O)c1
0.004 µM |  | 2.9 µM | 0.05 µM | 0.4 µM | N=C(N)c1ccc2[nH]c(-c3cc(CC(=O)O)cc(-c4cccc([N+](=O)[O-])c4)c3O)cc2c1
